According to patent publication US12037583B2, “Compositions and methods for immunooncology” (Novartis AG, priority 2015, dated 2024):

Test system: CIITA
Assay: NGS editing and frameshift edit of CIITA by dgRNA in HEK293 cells expressing Cas9
Format: cell-based, human
Conditions: HEK293 cells stably expressing Cas9, dgRNA to CIITA; for Avg. % Edit: N = 3; for Avg. % FS: frameshift edit
Experimental: Editing of CIITA with dgRNAs targeted to the CIITA gene were assayed in HEK293 cells engineered to express Cas9, as described above in Example 1.

Substance | Avg. % Edit | Avg. % FS
CR002973 (guide CAUCGCUGUUAAGAAGCUCC; targeting domain within dual guide RNA, chemistry not given here, further chemistry not given here; listed as Homo sapiens) | 30.60% | 23.55%
CR002974 (guide AGAAGUGGUAGAGGCACAGG; targeting domain within dual guide RNA, chemistry not given here, further chemistry not given here; listed as Homo sapiens) | 8.99% | 6.92%
CR002975 (guide UAGAAGUGGUAGAGGCACAG; targeting domain within dual guide RNA, chemistry not given here, further chemistry not given here; listed as Homo sapiens) | 19.31% | 15.82%
CR002977 (guide CAUAGAAGUGGUAGAGGCAC; targeting domain within dual guide RNA, chemistry not given here, further chemistry not given here; listed as Homo sapiens) | 19.11% | 12.99%
CR002979 (guide CUACCACUUCUAUGACCAGA; targeting domain within dual guide RNA, chemistry not given here, further chemistry not given here; listed as Homo sapiens) | 28.91% | 23.07%
CR002981 (guide CUUCUAUGACCAGAUGGACC; targeting domain within dual guide RNA, chemistry not given here, further chemistry not given here; listed as Homo sapiens) | 36.28% | 29.98%
CR002982 (guide UAUGACCAGAUGGACCUGGC; targeting domain within dual guide RNA, chemistry not given here, further chemistry not given here; listed as Homo sapiens) | 10.45% | 9.05%
CR002983 (guide CUUCUCCAGCCAGGUCCAUC; targeting domain within dual guide RNA, chemistry not given here, further chemistry not given here; listed as Homo sapiens) | 35.90% | 33.83%
CR002985 (guide CAGUUGAUGGUGUCUGUGUC; targeting domain within dual guide RNA, chemistry not given here, further chemistry not given here; listed as Homo sapiens) | 32.99% | 29.52%
CR002986 (guide GCAGUUGAUGGUGUCUGUGU; targeting domain within dual guide RNA, chemistry not given here, further chemistry not given here; listed as Homo sapiens) | 1.77% | 1.48%
CR002989 (guide CACACAACAGCCUGCUGAAC; targeting domain within dual guide RNA, chemistry not given here, further chemistry not given here; listed as Homo sapiens) | 27.38% | 8.45%
CR002996 (guide AGGUGCUUCCUCACCGAUAU; targeting domain within dual guide RNA, chemistry not given here, further chemistry not given here; listed as Homo sapiens) | 23.91% | 17.83%
CR002998 (guide GGGAGUCCUGGAAGACAUAC; targeting domain within dual guide RNA, chemistry not given here, further chemistry not given here; listed as Homo sapiens) | 4.95% | 4.84%
CR002999 (guide UGUCUUCCAGGACUCCCAGC; targeting domain within dual guide RNA, chemistry not given here, further chemistry not given here; listed as Homo sapiens) | 23.50% | 18.58%
CR003000 (guide CUUCCAGGACUCCCAGCUGG; targeting domain within dual guide RNA, chemistry not given here, further chemistry not given here; listed as Homo sapiens) | 12.83% | 10.53%
CR003002 (guide GGCCCUCCAGCUGGGAGUCC; targeting domain within dual guide RNA, chemistry not given here, further chemistry not given here; listed as Homo sapiens) | 11.85% | 9.78%
CR003003 (guide CUUGCUCAGGCCCUCCAGCU; targeting domain within dual guide RNA, chemistry not given here, further chemistry not given here; listed as Homo sapiens) | 35.07% | 27.91%

Substance | Avg. % Edit | Avg. % FS
CR003004 (guide CCUUGCUCAGGCCCUCCAGC; targeting domain within dual guide RNA, chemistry not given here, further chemistry not given here; listed as Homo sapiens) | 19.43% | 15.63%
CR003005 (guide CCAGCUGGAGGGCCUGAGCA; targeting domain within dual guide RNA, chemistry not given here, further chemistry not given here; listed as Homo sapiens) | 21.11% | 18.08%
CR003006 (guide UACUGAAAAUGUCCUUGCUC; targeting domain within dual guide RNA, chemistry not given here, further chemistry not given here; listed as Homo sapiens) | 19.46% | 14.66%
CR003008 (guide CUCUCACCGAUCACUUCAUC; targeting domain within dual guide RNA, chemistry not given here, further chemistry not given here; listed as Homo sapiens) | 15.30% | 10.91%
CR003010 (guide AUGGAGAUGCCAGCAGAAGU; targeting domain within dual guide RNA, chemistry not given here, further chemistry not given here; listed as Homo sapiens) | 25.45% | 14.37%
CR003012 (guide CUUUUCUGCCCAACUUCUGC; targeting domain within dual guide RNA, chemistry not given here, further chemistry not given here; listed as Homo sapiens) | 10.67% | 7.51%
CR003014 (guide GGUCUGCCGGAAGCUCCUCU; targeting domain within dual guide RNA, chemistry not given here, further chemistry not given here; listed as Homo sapiens) | 32.51% | 26.93%
CR003015 (guide AGGUCUGCCGGAAGCUCCUC; targeting domain within dual guide RNA, chemistry not given here, further chemistry not given here; listed as Homo sapiens) | 27.40% | 24.05%
CR003016 (guide UUCCGGCAGACCUGAAGCAC; targeting domain within dual guide RNA, chemistry not given here, further chemistry not given here; listed as Homo sapiens) | 17.86% | 13.55%
CR003017 (guide UUCCAGUGCUUCAGGUCUGC; targeting domain within dual guide RNA, chemistry not given here, further chemistry not given here; listed as Homo sapiens) | 21.90% | 15.22%
CR003018 (guide GAGCCCCCCACUGUGGUGAC; targeting domain within dual guide RNA, chemistry not given here, further chemistry not given here; listed as Homo sapiens) | 27.72% | 26.54%
CR003019 (guide CUGCCAGUCACCACAGUGGG; targeting domain within dual guide RNA, chemistry not given here, further chemistry not given here; listed as Homo sapiens) | 11.80% | 9.74%
CR003020 (guide ACUGCCAGUCACCACAGUGG; targeting domain within dual guide RNA, chemistry not given here, further chemistry not given here; listed as Homo sapiens) | 23.67% | 16.44%
CR003022 (guide AGACUGCCAGUCACCACAGU; targeting domain within dual guide RNA, chemistry not given here, further chemistry not given here; listed as Homo sapiens) | 23.73% | 17.96%
CR003023 (guide GAGACUGCCAGUCACCACAG; targeting domain within dual guide RNA, chemistry not given here, further chemistry not given here; listed as Homo sapiens) | 29.38% | 16.83%
CR003024 (guide GGUGACUGGCAGUCUCCUAG; targeting domain within dual guide RNA, chemistry not given here, further chemistry not given here; listed as Homo sapiens) | 20.40% | 16.33%
